Data on 3 molecules can be found in patent EP0607274B1, “3-(N-ISOPROPYL-N-n-PROPYLAMINO)-5-(N-ISOPROPYL)CARBAMOYLCHROMAN” (priority 1991, dated 1993).

One data set has as its target T1, 5-HT1A receptors (Rattus norvegicus, UniProt P19327).
T1 construct: Cerebral cortex + hippocampus from each rat was dissected and homogenized; from tissue; host or cells: rat cerebral cortex + hippocampus homogenate
T1 sequence (P19327 1-422): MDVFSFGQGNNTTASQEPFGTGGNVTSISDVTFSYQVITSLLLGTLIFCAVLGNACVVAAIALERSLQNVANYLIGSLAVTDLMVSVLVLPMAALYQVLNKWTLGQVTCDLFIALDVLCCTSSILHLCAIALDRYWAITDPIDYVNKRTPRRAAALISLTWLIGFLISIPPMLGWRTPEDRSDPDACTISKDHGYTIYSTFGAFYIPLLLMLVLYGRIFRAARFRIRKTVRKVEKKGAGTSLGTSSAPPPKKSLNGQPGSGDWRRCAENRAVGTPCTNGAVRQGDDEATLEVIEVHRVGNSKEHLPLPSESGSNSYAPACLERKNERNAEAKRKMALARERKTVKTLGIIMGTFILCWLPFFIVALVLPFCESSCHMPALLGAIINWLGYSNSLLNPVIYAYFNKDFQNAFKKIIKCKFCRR
The data set is described as follows: 5HT1A binding assay (3H-8-OH-DPAT, rat cerebral cortex + hippocampus homogenate). To be noted: rat brain, 37°C, 10 minutes. How it is done: In order to evaluate the 5-HT-receptor stimulating effect and selectivity, the affinity for various receptors in rat brain were measured in vitro using receptor assay. The stereospecific (R)-enantiomeric compound of the invention (R)-3-(N-isopropyl-N-n-propylamino)-5-(N-isopropyl)carbamoylchroman has Ki 8.6 (nM) and the racemic compound 3-(N-isopropyl-N-n-propylamino)-5-(N-isopropyl)-carbamoylchroman has Ki 24 (nM). The Ki value for the (S)-enantiomer exceeded 1000 nM.
Method: 5HT1A binding assay. Cerebral cortex + hippocampus from each rat was dissected and homogenized in 15 ml ice-cold 50 mM Tris-HCl buffer 4.0 mM CaCl2 and 5.7 mM ascorbic acid, pH 7.5 with an Ultra-Turrax (Janke & Kunkel, Staufen, FRG) for ten s. After centrifugation for 12.5 min at 17,000 rpm (39,800 x g in a Beckman centrifuge with a chilled JA-17 rotor (Beckman, Palo Alto, CA, USA), the pellets were resuspended in the same buffer and homogenization and centrifugation repeated. To each pellet 5 ml ice-cold 0.32 M sucrose were added and homogenized for 5 sec. These samples were kept frozen at -70°C. When used they were diluted with the buffer to 8 mg tissue/ml and homogenized for 10 sec. The tissue homogenates were incubated for ten minutes at 37°C and then supplied with 10 µM pargyline followed by reincubation for 10 minutes.
The binding assay followed that described by Peroutka, J. Neurochem. 47, 529-540, (1986). The incubation mixture (2 ml) contained ^3H-8-OH-DPAT (0.25 to 8 nM), 5 mg/ml tissue homogenate in 50 mM Tris-HCl buffer containing 4.0 mM CaCl2 and 5.7 mM ascorbic acid, pH 7.5. Six different concentrations of ^3H-8-OH-DPAT were analyzed. Binding experiments were started by the addition of tissue homogenate and followed by incubation at 37°C for 10 minutes. […] The filters were washed twice with 5 ml ice-cold 50mM Tris-HCl buffer, pH 7.5, and counted with 5 ml Ready-solv HP (Beckman) in a Beckman LS 3801 scintillation counter. Non-specific binding was measured by the addition of 10 µM 5-HT to the reaction mixture. […]

Data set [1] can be described thus: Oral bioavailability in dogs (plasma AUC method, i.v. versus p.o.). As to conditions: dog, 10 umol/kg, plasma level measurements, 1 µmol·kg^-1 i.v. and 10 µmol·kg^-1 p.o. The data set is classed as in vivo. As for the experimental part:
Dose-effect studies in rat following subcutaneous versus oral administration further support a high availability of the compound at the receptor after oral administration.
Method: Assessment for oral bioavailability (systemic availability) was based on the plasma area under the curve (AUC) method. An aqueous saline solution of compound of the invention was administered intravenously (i.v.) and orally (p.o.) to the animals and concentrations of the compound in plasma measured at numerous timepoints. The doses administered were 1 µmol·kg^-1 and 10 µmol·kg^-1 for intravenous and oral administration, respectively. AUC was calculated according to the trapezoidal rule. Determination of the test compound in plasma was accomplished by an HPLC method which incorporated electrochemical detection.

A short description of data set [2]: Temperature effects: body temperature in rats. The class given is in vivo. As for the experimental part: Method: In each test, thirty rats, weighing approx 250 g, housed in 6 cages of 5 rats, are used. The rats have free access to food and water. Before the start of testing, they are numbered and left undisturbed for at last 1 hour. Before the administration of the compound, the body temperature of each rat is measured using a YSI 2100 tele-thermometer. The thermometer probe is inserted 10 cm into the rectum and left in pace for thirty seconds. The drug is then administered either subcutaneously or orally. In each experiment vehicle and 4 doses of drug are tested. One rat in each cage receives each treatment. The order of treatment is rotated since disturbance to the cage increases the activity of the rats, and thereby their body temperature. Thirty minutes after drug administration the rats' body temperature are measured again. The procedure is repeated 60, 90 and 120 minutes after drug administration. The resultant data on body temperature is subjected to analysis of variance. A significant group by time interaction is taken as an indication of drug effect. To obtain the minimum effective dose, the mean temperature for each of the drug treated groups are compared with that of the vehicle group at each time point using Dunnett's t-test with a level of significance of p<0.02. […]

A further data set deals with synthesis rate of 5-HT. Put plainly: Synthesis of 5-HT: accumulation of 5-HTP in rat brain after NSD 1015. The data set is classed as in vivo. As to conditions: compound given 30 min before NSD 1015. As for the experimental part:
Method: The rate of synthesis of 5-HT in the rat streatum was measured as the accumulation of 5-HTP during 30 min after inhibition of aromatic L-amino acid decarboxylase by NSD 1015 (decarboxylase inhibitor, 100 mg/kg i.p.). The test compound was administered 30 min before the NSD 1015. The regions of the brain to be examined were dissected, frozen and stored.
The levels of 5-HTP (5-hydroxytryptophan) was determined by use of high performance liquid chromatography (HPLC) with electrochemical detection according to the method of Magnusson, Nilsson and Westerlund (1980). The mobile phase was 0.1 M phosphate buffer (pH 2.5):methanol:acetonitrile-89:9:2 v/v, containing 1mM octylsulphate. The frozen samples were weighed and homogenized in 0,1 M perchloric acid, containing […] sodium bisulphite, 1 mM ethylene diamine tetraacetic acid (EDTA) and epinine as an internal standard. The supernatants were injected directly onto a Supelcosil C18 (3 µM) column, connected to a detector (ESA Coulochem 5100A), set to 0.05/0.40 V.

Structures are written as SMILES.

As a reminder, the Ki is a measure of affinity in units of concentration, obtained from inhibition or displacement. As usually defined, the bioavailability is the share of a dose that reaches the circulation, judged against a reference dose that is usually intravenous. Low values mean poor availability, high ones good availability. As to `CCCN(C(C)C)C1COc2cccc(C(=O)NC(C)C)c2C1` (racemic) [racemate, 3-(N-Isopropyl-N-n-propylamino)-5-(N-isopropyl)carbamoyl chroman], the Ki at 5-HT1A receptors was determined as 0.024 µM. The same molecule gave a bioavailability in data set [1] of 21%.

Consider `CCCN(C(C)C)[C@H]1COc2cccc(C(=O)NC(C)C)c2C1` [(R)-enantiomer, (R)-3-(N-Isopropyl-N-n-propylamino)-5-(N-isopropyl)carbamoylchroman], for which the body temperature result in data set [2] (1 mg/kg oral administration) and in data set [2] (subcutaneous administration of 0.3 mg/kg) was “significant temperature decrease” throughout. The “synthesis rate of 5-HT, measured as 5-HTP level in rat brain” value with synthesis rate of 5-HT (0.2 mg/kg oral administration) and in the data set on synthesis rate of 5-HT (0.1trig/kg subcutaneous administration) was “significant decrease” in each case. For the same molecule, the Ki at 5-HT1A receptors was found to be 0.0086 µM. Moreover, the bioavailability in data set [1] turned out to be 17%.

For the molecule `CCCN(C(C)C)[C@@H]1COc2cccc(C(=O)NC(C)C)c2C1` [(S)-enantiomer, (S)-enantiomer of 3-(N-isopropyl-N-n-propylamino)-5-(N-isopropyl)carbamoylchroman], the Ki at 5-HT1A receptors was over 1 µM.
